From patent EP0007672A1, “Isocyanoalkenes, process and useful intermediates for their preparation, pharmaceutical and fungicidal preparations containing those isocyanoalkenes and the use of the fungicidal preparations in agriculture” (GIST-BROCADES N.V., priority 1978, dated 1980)

Assay: storage stability
Type: physicochemical
Excerpt: Those compounds in which Rx or Ry is a hydrogen atom should be stored generally at lower temperatures, e.g. in a refrigerator. The 1-isocyano-l-p-toluenesulphonylethene (Rx and Ry hydrogen atoms) appears to be very unstable. Notwithstanding this the compound, in the reaction medium in which it must be present, could be converted with a primary amine into the corresponding imidazole, which in turn, may be converted into its ^picrate. This proves that 1-isocyano-i-p-toluenesulphonylethene exists.

With `[C-]#[N+]C(=C)S(=O)(=O)c1ccc(C)cc1` [Example 8, 1-isocyano-1-(4-toluenesulphonyl)-ethene] the stability was “very unstable”.
